# Reference: US20070225248A1 (Clavis Pharma AS, priority 2006, published 2007)
# Where two headings read alike, the source gives them in different places. Marks after values point to notes of the source that are not given here.
# Columns and labels:
# [1] = test system: Colon 5776 (human colon carcinoma); assay: Antitumour activity in human colon cancer xenograft Co5776, IP treatment; conditions: for Toxic deaths (d): 8 NCR:nu/nu female mice; for Optimum T/C [%] (volume of treated tumour versus control tumour): significant vs saline; for antitumour activity in terms of reductions in tumor growth (in words): FIG. 1
# Description: (§1) Human colon cancer Co5776 was inserted to Ncr:nu/nu female mice subcutaneously, and treatment started when tumors reached a mean volume of 100 mm^3.
# [2] = test system: Colon 6044 (human colon carcinoma); assay: Antitumour activity in Co6044 after oral administration, different dosing schedules (Table 4); format: in vivo, mice; conditions: for Toxic deaths (d): 7 mice; for Optimum T/C [%] (on day): significant vs saline
# Description: Antitumour Activity of Elaidic Acid (5′)-Gemcitabine Ester in Co6044 After Oral Administration
# [3] = test system: Colon 6044 (human colon carcinoma)
# [4] = test system: Co6044 (human colon carcinoma); assay: Antitumour activity in human colon cancer xenograft Co6044, IP treatment; conditions: for Toxic deaths (d): 8 mice; for Optimum T/C [%]: significant vs saline
# Description: (§2) Treatment started when the tumors reached a mean volume of 100 mm^3.
# [5] = Maximum tolerated dose, administration every third day repeated five times; format: in vivo, mice; conditions: administered every third day
# Description: This is shown below by the experiments presented in table 1 and table 2 using different mice strains and also different human colon xenografts.
# [6] = test system: Co6044 (human colon carcinoma); conditions: mouse, in vivo, ip, 120 mg/kg
# Description: as §2
# [7] = test system: Colon 5776 (human colon carcinoma); conditions: mouse, in vivo, ip, 120 mg/kg
# Description: as §1
# [8] = IP 40 mg/kg, D8, 11, 14, 17, 20
# [9] = Oral 10 mg/kg, D 7, 10, 13, 16, 19
# [10] = Oral 15 mg/kg, D 7, 10, 13, 16, 19
# [11] = IP 120 mg/kg, D8, 11, 14, 17, 20
smiles,measurement,setting,value
"CCCCCCCC/C=C/CCCCCCCC(=O)OC[C@H]1O[C@@H](n2ccc(N)nc2=O)C(F)(F)[C@@H]1O [Elaidic acid (5′)-gemcitabine ester, elaidic acid (5′)-gemcitabine ester]",BWC [%] (body weight change),[1]; [8],−4%
same,Toxic deaths (d),[1]; [8],0
same,Optimum T/C [%] (volume of treated tumour versus control tumour),[1]; [8],17* %
same,antitumour activity in terms of reductions in tumor growth (in words),[1]; IP 40 mg/kg,high antitumour activity
same,BWC [%],"[2]; Oral 5 mg/kg, D 7-11",−3%
same,Toxic deaths (d),"[2]; Oral 5 mg/kg, D 7-11",0
same,Optimum T/C [%] (on day),"[2]; Oral 5 mg/kg, D 7-11, optimum on day 28",10(28)* %
same,BWC [%],[2]; [9],−1%
same,Toxic deaths (d),[2]; [9],0
same,Optimum T/C [%] (on day),"[2]; Oral 10 mg/kg, D 7, 10, 13, 16, 19, optimum on day 24",35(24)* %
same,BWC [%],"[2]; Oral 10 mg/kg, D 7-11",−5%
same,Toxic deaths (d),"[2]; Oral 10 mg/kg, D 7-11",0
same,Optimum T/C [%] (on day),"[2]; Oral 10 mg/kg, D 7-11, optimum on day 17",8(17)* %
same,BWC [%],[2]; [10],−1%
same,Toxic deaths (d),[2]; [10],0
same,Optimum T/C [%] (on day),"[2]; Oral 15 mg/kg, D 7, 10, 13, 16, 19, optimum on day 24",27(24)* %
same,BWC [%],"[2]; Oral 20 mg/kg, D 7, 10, 13, 16, 19",−3%
same,Toxic deaths (d),"[2]; Oral 20 mg/kg, D 7, 10, 13, 16, 19, death on day 17",1(17)
same,Optimum T/C [%] (on day),"[2]; Oral 20 mg/kg, D 7, 10, 13, 16, 19, optimum on day 24",16(24)* %
same,BWC [%],"[2]; Oral 50 mg/kg, D 7, 14",0%
same,Toxic deaths (d),"[2]; Oral 50 mg/kg, D 7, 14",0
same,Optimum T/C [%] (on day),"[2]; Oral 50 mg/kg, D 7, 14, optimum on day 17",22(17)* %
same,BWC [%],"[2]; Oral 100 mg/kg, D 7, 14",−4%
same,Toxic deaths (d),"[2]; Oral 100 mg/kg, D 7, 14, death on day 20",1(20)
same,Optimum T/C [%] (on day),"[2]; Oral 100 mg/kg, D 7, 14, optimum on day 24",4(24)* %
same,activity after oral administration (in words),"[2]; oral, all tested schedules",High dose dependent activity
same,significance of antitumour activity (in words),"[2]; oral, all the tested schedules",Significant antitumour activity
same,BWC [%] D 13,"[3]; Oral 40 mg/kg, Q3 × 5, D 13",−7%
same,Toxic deaths (d),"[3]; Oral 40 mg/kg, Q3 × 5, deaths on day 15",2/8 (15)
same,Optimum T/C [%] (on day),"[3]; Oral 40 mg/kg, Q3 × 5, optimum on day 27, significant vs saline",5(27)* %
same,Optimum T/C [%] (on day),"[3]; Oral 60 mg/kg, Q3 × 5",Toxic
same,BWC [%] D 13,"[3]; Oral 60 mg/kg, Q3 × 5, D 13",−9%
same,Toxic deaths (d),"[3]; Oral 60 mg/kg, Q3 × 5, deaths days 12-24",6/8(12-24)
same,Optimum T/C [%] (on day),"[3]; Oral 80 mg/kg, Q3 × 5",Toxic
same,BWC [%] D 13,"[3]; Oral 80 mg/kg, Q3 × 5, D 13",−6%
same,Toxic deaths (d),"[3]; Oral 80 mg/kg, Q3 × 5, deaths days 16-22",6/8(16-22)
same,activity and tolerability when given orally (in words),"[3]; oral, 40 mg/kg",highly active and tolerable
same,antitumor effect (in words),[4]; IP 40 mg/kg every third day for five times,Excellent antitumor effect
same,Toxic deaths (d),[4]; [8],0
same,BWC D 8-15 (body weight change),"[4]; IP 40 mg/kg, D8, 11, 14, 17, 20, D 8-15",−1
same,Optimum T/C [%],[4]; [8],19* %
same,maximum tolerated dose,[5],40 mg/kg per injection
"Nc1ccn([C@@H]2O[C@H](CO)[C@@H](O)C2(F)F)c(=O)n1 [Gemcitabine, 2′,2′-difluorodeoxycytidine, reference compound]",BWC D 8-15 (body weight change),[6],−3
same,Toxic deaths (d),"[1]; IP 120 mg/kg, D8, 11, 14, 17, 20, death on day 18",1(18)
same,Optimum T/C [%] (volume of treated tumour versus control tumour),[1]; [11],17* %
same,antitumour activity in terms of reductions in tumor growth (in words),[1]; IP 120 mg/kg,high antitumour activity
same,BWC [%] D 13,"[3]; mouse, in vivo, po, 120 mg/kg",−16%
same,BWC [%] D 13,"[3]; mouse, in vivo, po, 180 mg/kg",−22%
same,BWC [%] D 13,"[3]; mouse, in vivo, po, 240 mg/kg",−21%
same,antitumor effect (in words),[4]; IP 120 mg/kg every third day for five times,Excellent antitumor effect
same,Toxic deaths (d),[4]; [11],0
same,Optimum T/C [%],[4]; [11],15* %
same,BWC [%] (body weight change),[7],−5%
same,maximum tolerated dose,[5],approximately 120 mg/kg per injection
